ChEMBL document CHEMBL1201862, “PubChem BioAssay data set” (2004)
Where a name gives a salt, the structure may show the parent alone.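 Cultured in 96-well plates, cells were exposed to test compound for 48 hours across five concentrations. GI50: concentration for 50% inhibition of growth.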 The source made the active and inactive calls. Cut-off read from the data, not from the text of the source: active = GI50 up to about 1.1 µM and inactive = higher.

Key:
Experiment in all cases: NCI anticancer screen, dose series, 48 h
A498 = tested on: A498
ACHN = tested on: ACHN
CAKI-1 = tested on: CAKI-1
CCRF-CEM = tested on: CCRF-CEM
COLO 205 = tested on: COLO 205
HCC 2998 = tested on: HCC 2998
Hs-578T = tested on: Hs-578T
LOX IMVI = tested on: LOX IMVI
MDA-N = tested on: MDA-N
MOLT-4 = tested on: MOLT-4
Malme-3M = tested on: Malme-3M
NCI/ADR-RES = tested on: NCI/ADR-RES
OVCAR-3 = tested on: OVCAR-3
OVCAR-4 = tested on: OVCAR-4
OVCAR-5 = tested on: OVCAR-5
SF-268 = tested on: SF-268
SF-295 = tested on: SF-295
SN12C = tested on: SN12C
SW-620 = tested on: SW-620
UO-31 = tested on: UO-31

Measured: GI50

COc1cc2oc(-c3ccc4c(c3)OCO4)c(OC)c(=O)c2c(OC)c1O
inactive: A498 45.4 µM | ACHN 67.8 µM | CAKI-1 > 100 µM | CCRF-CEM 34.7 µM | COLO 205 > 100 µM | HCC 2998 70.5 µM | Hs-578T 61 µM | LOX IMVI 32.7 µM | MDA-N > 100 µM | MOLT-4 45.7 µM | Malme-3M > 100 µM | NCI/ADR-RES 66.8 µM | OVCAR-3 44.2 µM | OVCAR-4 59.3 µM | OVCAR-5 > 100 µM | SF-268 27.9 µM | SF-295 41.7 µM | SN12C 71.8 µM | SW-620 > 100 µM | UO-31 53 µM

O=C(Cn1c2c(c3ccccc31)CCCC2)N1CCOCC1
inactive: A498 > 100 µM | ACHN > 100 µM | CAKI-1 > 100 µM | CCRF-CEM > 100 µM | COLO 205 > 100 µM | HCC 2998 > 100 µM | Hs-578T 35.2 µM | LOX IMVI > 100 µM | MDA-N > 100 µM | MOLT-4 > 100 µM | Malme-3M > 100 µM | NCI/ADR-RES > 100 µM | OVCAR-3 > 100 µM | OVCAR-4 44.4 µM | OVCAR-5 87.3 µM | SF-268 > 100 µM | SF-295 > 100 µM | SN12C > 100 µM | SW-620 > 100 µM | UO-31 25.9 µM

O=C(N[C@@H](c1ccccc1)[C@@H](O)C(=O)OCc1ccc([N+](=O)[O-])cc1)c1ccccc1
inactive: A498 > 100 µM | ACHN > 100 µM | CAKI-1 > 100 µM | CCRF-CEM 67.6 µM | COLO 205 > 100 µM | HCC 2998 > 100 µM | Hs-578T > 100 µM | LOX IMVI > 100 µM | MDA-N > 100 µM | MOLT-4 25.8 µM | Malme-3M > 100 µM | NCI/ADR-RES > 100 µM | OVCAR-3 > 100 µM | OVCAR-4 > 100 µM | OVCAR-5 > 100 µM | SF-268 > 100 µM | SF-295 > 10 µM | SN12C > 100 µM | SW-620 > 100 µM | UO-31 65.5 µM

Cn1c(=O)c2c3ccccc3n(C)c2n(C)c1=O
inactive: A498 > 100 µM | ACHN 97.9 µM | CAKI-1 > 100 µM | CCRF-CEM > 100 µM | COLO 205 > 100 µM | HCC 2998 > 100 µM | Hs-578T > 100 µM | LOX IMVI > 100 µM | MDA-N > 100 µM | MOLT-4 > 100 µM | Malme-3M > 100 µM | NCI/ADR-RES > 100 µM | OVCAR-3 > 100 µM | OVCAR-4 > 100 µM | OVCAR-5 > 100 µM | SF-268 > 100 µM | SF-295 > 100 µM | SN12C > 100 µM | SW-620 > 100 µM | UO-31 > 100 µM

Clc1ccc(C2ON=C(c3ccccc3)N2C23CC4CC(CC(C4)C2)C3)cc1Cl (stereo not given)
inactive: A498 > 10 µM | ACHN > 10 µM | CAKI-1 > 10 µM | CCRF-CEM > 10 µM | COLO 205 > 10 µM | HCC 2998 > 10 µM | Hs-578T > 10 µM | LOX IMVI > 10 µM | MDA-N > 10 µM | MOLT-4 > 10 µM | Malme-3M > 10 µM | NCI/ADR-RES > 10 µM | OVCAR-3 > 10 µM | OVCAR-4 > 10 µM | OVCAR-5 > 10 µM | SF-268 > 10 µM | SF-295 > 10 µM | SN12C > 10 µM | SW-620 > 10 µM | UO-31 > 10 µM

COc1ccc(/C=C(/c2ccccc2)c2c(C)cc(C)c(/C(=C\c3ccc(OC)cc3)c3ccccc3)c2/N=N/c2cc(C)cc(C)c2)cc1
inactive: A498 32.7 µM | ACHN > 56.5 µM | CAKI-1 > 88.1 µM | CCRF-CEM 8.49 µM | COLO 205 8.04 µM | HCC 2998 8.34 µM | Hs-578T 22.5 µM | LOX IMVI 24.2 µM | MDA-N 24 µM | MOLT-4 15.7 µM | Malme-3M 17.9 µM | NCI/ADR-RES > 100 µM | OVCAR-3 4.1 µM | OVCAR-4 20.1 µM | OVCAR-5 > 84.5 µM | SF-268 39.9 µM | SF-295 24.7 µM | SN12C 8.47 µM | SW-620 13.5 µM | UO-31 > 67.5 µM

Cn1c2ccccc2c2c(=S)c3ccccc3ccc21
inactive: A498 > 100 µM | ACHN > 100 µM | CAKI-1 > 100 µM | CCRF-CEM 19 µM | COLO 205 67.3 µM | HCC 2998 > 100 µM | Hs-578T > 100 µM | LOX IMVI 62.1 µM | MDA-N > 100 µM | MOLT-4 16.2 µM | Malme-3M > 100 µM | NCI/ADR-RES > 100 µM | OVCAR-3 17.8 µM | OVCAR-4 44.6 µM | OVCAR-5 > 100 µM | SF-268 > 100 µM | SF-295 76 µM | SN12C > 100 µM | SW-620 > 100 µM | UO-31 > 100 µM

O=c1[nH]nc(Cc2ccccc2)n1/N=C/c1ccccc1O
inactive: A498 > 100 µM | ACHN > 100 µM | CAKI-1 > 100 µM | CCRF-CEM > 100 µM | COLO 205 > 100 µM | HCC 2998 > 100 µM | Hs-578T 51.9 µM | LOX IMVI > 100 µM | MDA-N > 100 µM | MOLT-4 > 100 µM | Malme-3M > 100 µM | NCI/ADR-RES > 100 µM | OVCAR-3 > 100 µM | OVCAR-4 > 100 µM | OVCAR-5 > 100 µM | SF-268 50.1 µM | SF-295 57.7 µM | SN12C > 100 µM | SW-620 > 100 µM | UO-31 > 100 µM

COc1cc2cc(C(=O)N3CC(CCl)c4c3cc([N+](=O)[O-])c3ccccc43)[nH]c2c(OC)c1OC (stereo not given)
inactive: A498 > 40.6 µM | ACHN 11.2 µM | CAKI-1 39.4 µM | CCRF-CEM 11.6 µM | COLO 205 > 76 µM | HCC 2998 14.1 µM | Hs-578T > 45.1 µM | LOX IMVI 49.9 µM | MDA-N > 100 µM | MOLT-4 13.8 µM | Malme-3M 68.1 µM | NCI/ADR-RES 9.06 µM | OVCAR-3 > 100 µM | OVCAR-4 > 51.2 µM | OVCAR-5 25.6 µM | SF-268 26.8 µM | SF-295 14.7 µM | SN12C 79.6 µM | SW-620 > 100 µM | UO-31 > 100 µM

N[C@@H](Cc1ccc(N(CCCl)CCCl)cc1)C(=O)O [MELPHALAN HYDROCHLORIDE]
inactive: A498 99.1 µM | ACHN 9.57 µM | CAKI-1 10.9 µM | CCRF-CEM 2.85 µM | COLO 205 43.3 µM | HCC 2998 43.3 µM | Hs-578T 51.8 µM | LOX IMVI 20.3 µM | MDA-N 46.3 µM | MOLT-4 2.79 µM | Malme-3M 23.8 µM | NCI/ADR-RES 40.7 µM | OVCAR-3 42.3 µM | OVCAR-4 40 µM | OVCAR-5 47.4 µM | SF-268 19.9 µM | SF-295 20 µM | SN12C 14.5 µM | SW-620 33.6 µM | UO-31 48 µM
